# Measurements: patent US11925662B2, “Compositions and methods of enhancing anti-tumor response using hybrid neutrophils” (THE TRUSTEES OF THE UNIVERSITY OF PENNSYLVANIA, priority 2015, dated 2024)
# Key:
# [1] = tested on: bone marrow neutrophils (BMNs); experiment: Differentiation of BMNs into HLA-DR+CD14+ hybrid neutrophils (flow cytometry); format: cell-based, human; conditions: for induction of the CD14+HLA-DR+ hybrid phenotype in BMNs: single factor at the low concentrations found in the TCMs
# Description: Generation of BM-Derived Hybrid and Canonical Neutrophils. To differentiate BMNs into cells that resemble canonical TANs, purified long-lived BMNs were cultured for 7 days with a TCM (50% v/v) collected from a patient's tumor digest where a large number of hybrid TANs were previously unable to be identified by flow cytometry. […] Alternatively, hybrid-neutrophils were differentiated from BMNs with low doses IFN-γ (50 pg/ml) and GM-CSF (50 pg/ml) for 7 days. If it was observed that the formation of hybrid BMNs was less than 80% the HLA-DR+CD14+ hybrid cells from TCM treated BMNs were enriched by positive selection using magnetic beads coated with anti-HLA-DR antibodies or by flow cytometric cell sorting. The proliferation of BMNs during the differentiation was assessed by flow cytometry using BrdU Flow Kit (BD Pharmingen). BMNs were exposed to bromo-deoxyuridine for 6 hours.
# To test the effect of hypoxia on hybrid neutrophil formation, BMNs were cultured for 6 days under normoxic and hypoxic culture conditions maintained in a 37° C. incubator containing 5% CO2, and either atmospheric 21% O2 or 5% O2 condition (Hypoxia Incubator Chamber, Stemcell Techology). BMNs were also cultured in the presence of hybrid-inducing TCM and cobalt chloride (25 μM) (MP Biomedicals LLC), an agent that induces the hypoxia-inducible factor-1α, the main transcriptional factor activated in hypoxic conditions.
# Flow Cytometry. Flow cytometric analysis was performed according to standard protocols. Negative gating was based on a fluorescence minus one (FMO) strategy. To exclude dead cells from analysis, cells were stained with the Fixable Viability Dye eFluor® 450 (ebioscience), LIVE/DEAD® fixable dead cell stains (Molecular probes, Life Technologies), or Zombie Yellow™ Fixable Viability dye (Biolegend). To distinguish early-stage apoptotic and late-stage apoptotic/necrotic cells, cells were first stained with Fixable Viability Dye eFluor® 660 (eBioscience). Then cells were washed with the AnnexinV-Binding Buffer and stained with anti-AnnexinV Abs (FITC) in the AnnexinV-Binding Buffer for 10 min at RT. Cells were washed and analyzed by flow cytometry.
# (§1) For phenotypic and functional analysis PBNs, BMNs, and TANs were gated on live CD11b^+CD15^hiCD66b^+ cells. […] All data were acquired using the BD FACSCalibur or BD LSRFortessa™ (BD Bioscience) flow cytometers and analyzed using FlowJo software (TreeStar Inc.).
# [2] = tested on: PD-L1; experiment: PD-L1 expression on HLA-DR+ BMNs (flow cytometry); format: cell-based, human; conditions: IFN-γ at more than 1 ng/ml, with GM-CSF 50 pg/ml
# Description: FIGS. 16A-16F are a series of graphs showing tumor-derived IFN-γ and GM-SCF synergistically differentiate immature neutrophils into a subset of APC-like hybrid neutrophils. […] FIGS. 16E-16F show levels of IFN-γ (FIG. 16E) and GM-CSF (FIG. 16F) in supernatants collected from the cell culture of small-sized tumor digests where APC-like hybrid TANs were or were not previously detected (set-off was >10% among all TANs) (line represents mean±SEM, n=10, Mann-Whitney test for unpaired data). Lower panels represent the correlation between the absolute levels of IFN-γ and GM-CSF in the TCM, with the frequency of hybrid neutrophils in each tumor shown in the upper graphs. Non-parametric Spearman test was used to determine the degree of correlation. Representative dot plots from one of five experiments are shown in (FIG. 16A-16D).
# as §1
# [3] = tested on: human Ikaros proteins; conditions: literature (Kronke et al., 2014); cited from earlier work
molecule,measurement,setting,value
[Cl][Co][Cl] [cobalt chloride],development of hybrid CD14+HLA-DR+ neutrophils,"[1]; with hybrid-inducing TCM, cobalt chloride 25 μM (hypoxia-simulating), 6 days",profoundly inhibited
GM-CSF: Human recombinant GM-CSF purchased from PeproTech,induction of the CD14+HLA-DR+ hybrid phenotype in BMNs,[1],"able to induce the phenotype, although in a relatively low percentage of cells"
IFN-γ: Human recombinant IFN-γ purchased from PeproTech,induction of the CD14+HLA-DR+ hybrid phenotype in BMNs,[1],"able to induce the phenotype, although in a relatively low percentage of cells"
same,expression of PD-L1 on the HLA-DR+ BMNs,[2],gradually induced the expression of PD-L1
Nc1cccc2c1CN(C1CCC(=O)NC1=O)C2=O (stereo not drawn) [lenalidomide],development of HLA-DR+CD14+ hybrid neutrophils,"[1]; lenalidomide added to BM neutrophils treated with hybrid-inducing TCM (30% v/v), 6 days",dramatically facilitated
same,effect on Ikaros proteins,[3],causes proteasomal degradation of the human Ikaros proteins
